Values of other authors, collected in US20150284900A1, “Novel Activator for Hydrogen Peroxide and Its Application” (priority 2014, published 2015).

Settings: in water; room temperature (20° C.)

ionization constant: 1.78×10^−12
Structure (SMILES): OO [Activator H2O2, Hydrogen peroxide]
